The results in this text go back to patent US9938269B2, “Inhibitor compounds of phosphodiesterase type 10A” (ABBVIE INC., priority 2011, dated 2018).

Where a name gives a salt, the structure may show the parent alone.

One may read the IC50 as the concentration needed to halve the response being measured. High values mean weaker potency, low ones greater potency.

T1 sequence (Q9Y233 whole entry): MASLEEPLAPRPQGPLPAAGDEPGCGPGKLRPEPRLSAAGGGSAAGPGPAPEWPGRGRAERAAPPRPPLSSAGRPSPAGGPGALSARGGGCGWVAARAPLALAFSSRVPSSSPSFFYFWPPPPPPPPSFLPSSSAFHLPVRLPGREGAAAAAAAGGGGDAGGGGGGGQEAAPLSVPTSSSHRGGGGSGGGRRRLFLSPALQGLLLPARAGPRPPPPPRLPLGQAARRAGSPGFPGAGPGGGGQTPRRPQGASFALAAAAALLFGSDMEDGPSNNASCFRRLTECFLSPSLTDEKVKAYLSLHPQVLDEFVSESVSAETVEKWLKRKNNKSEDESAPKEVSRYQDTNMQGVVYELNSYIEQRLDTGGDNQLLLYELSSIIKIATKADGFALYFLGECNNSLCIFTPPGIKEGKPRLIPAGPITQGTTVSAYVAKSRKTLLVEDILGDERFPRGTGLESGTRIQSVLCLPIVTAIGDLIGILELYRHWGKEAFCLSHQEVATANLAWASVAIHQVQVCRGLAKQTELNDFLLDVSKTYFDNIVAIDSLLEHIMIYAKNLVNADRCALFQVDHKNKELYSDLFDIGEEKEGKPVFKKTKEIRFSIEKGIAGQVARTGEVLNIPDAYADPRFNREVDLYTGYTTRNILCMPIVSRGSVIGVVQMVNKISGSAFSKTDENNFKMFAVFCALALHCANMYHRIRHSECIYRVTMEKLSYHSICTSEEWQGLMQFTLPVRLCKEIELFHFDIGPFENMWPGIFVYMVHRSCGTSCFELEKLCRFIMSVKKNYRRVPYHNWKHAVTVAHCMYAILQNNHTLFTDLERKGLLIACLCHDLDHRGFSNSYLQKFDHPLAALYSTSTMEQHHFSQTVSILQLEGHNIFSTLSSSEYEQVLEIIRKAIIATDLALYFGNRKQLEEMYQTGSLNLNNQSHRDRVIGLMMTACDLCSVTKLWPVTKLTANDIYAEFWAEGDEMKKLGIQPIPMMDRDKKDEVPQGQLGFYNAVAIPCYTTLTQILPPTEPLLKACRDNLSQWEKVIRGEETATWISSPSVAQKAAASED

The experiment has as its target T1, PDE10A (human) (Homo sapiens, UniProt Q9Y233).
T1 construct: purchased BPS Bioscience
Description: Measurement of PDE activity (HTRF cAMP kit), human PDE10A. The class given is biochemical. The note with it: PDE enzymatic reaction, substrate 20 nM for PDE10, 60 minutes at 29 C. Here is the method:
The recombinant PDE proteins are used in in vitro enzymatic reaction for measurement of PDE activity. These recombinant proteins, including PDE10A (human, rat and mouse PDE10) and isoforms of PDEs 1, 3, 4, and 5, were purchased from commercial vendor BPS Bioscience. The enzymatic activity of PDEs was determined by cAMP measurement kit from CisBio (IBA) using HTRF technology.
The PDE enzymatic reaction was carried out in assay buffer (20 mM Tris-HCl pH7.5, 10 mM MgCl2, 0.1% bovine serum albumin) containing enzyme and substrate. The PDE enzymes concentration ranged from 10 pM-250 pM, depending on each enzyme's specific activity. The substrate cyclic nucleotide (cAMP or cGMP) concentration used in the assay was 20 nM for PDE10, and 100 nM for other PDEs. The inhibitory effect of compound was determined by incubating various concentration of inhibitor in the enzymatic assay. Typically, compound was serial diluted in DMSO then further diluted in assay buffer. Next, the compound at varying concentration was mixed with PDE enzyme. The reaction was initiated by addition of cyclic nucleotide substrate, and incubated for 60 minutes at 29 C. The reaction was stopped by addition of lysis buffer from assay kit. The cAMP-d2 and anti-cAMP cryptate in the lysis buffer detected the level of cAMP left from the PDE hydrolysis reaction. The PDE activity is reversely correlated with the amount of cAMP left in the reaction and can be converted to the percent activity of an uninhibited control (100%). Thus, IC50 value of inhibitor can be obtained by plotting inhibitor concentration against PDE activity at that concentration.
Background: In TR-FRET formats the signal depends on donor and acceptor labels being close together.
In the case of `Cn1cncc1-c1cccc2c1C(=O)N(CCc1ccc3ccccc3n1)C2` [Example 94, 7-(3-Methyl-3H-imidazol-4-yl)-2-(2-quinolin-2-yl-ethyl)-2,3-dihydro-isoindol-1-one], the concentration for half-maximal inhibition (IC50) is 200 to 500 nM. Take `COc1ccc(-c2cccc3c2C(=O)N(CCc2ccc4ccccc4n2)C3)cc1` [Example 23, 7-(4-Methoxy-phenyl)-2-(2-quinolin-2-yl-ethyl)-2,3-dihydro-isoindol-1-one]: the IC50 was under 100 nM.

For the compound `O=C1c2c(C3CCOC3)ccnc2CN1CCc1ccc2ccccc2n1` (stereo not shown) [Example 309, 6-(2-Quinolin-2-yl-ethyl)-4-(tetrahydro-furan-3-yl)-6,7-dihydro-pyrrolo[3,4-b]pyridin-5-one], the IC50 was under 100 nM. Compound `O=C1c2cccc(-c3cccnc3)c2CN1CCc1ccc2ccccc2n1` [Example 201, 4-Pyridin-3-yl-2-(2-quinolin-2-yl-ethyl)-2,3-dihydro-isoindol-1-one] yielded a concentration for half-maximal inhibition (IC50) of under 100 nM. The compound `Cc1ccsc1-c1cccc2c1CN(CCc1ccc3ccccc3n1)C2=O` [Example 351, 4-(3-Methyl-thiophen-2-yl)-2-(2-quinolin-2-yl-ethyl)-2,3-dihydro-isoindol-1-one] gave an IC50 of 200 to 500 nM. For the compound `O=C1c2c(cccc2-c2ccoc2)CN1CCc1ccc2ccccc2n1` [Example 46, 7-Furan-3-yl-2-(2-quinolin-2-yl-ethyl)-2,3-dihydro-isoindol-1-one], the IC50 was under 100 nM. Turning to `COc1cnccc1-c1cccc2c1CN(CCc1ccc3ccccc3n1)C2=O` [compound 388, 4-(3-Methoxy-4-pyridyl)-2-[2-(2-quinolyl)ethyl]isoindolin-1-one], the IC50 was in the range of 100 to 200 nM.

With `O=C1c2c(ccnc2-c2ccncc2)CN1CCc1ccc2ccccc2n1` [Example 1, 4-Pyridin-4-yl-2-(2-quinolin-2-yl-ethyl)-1,2-dihydro-pyrrolo[3,4-c]pyridin-3-one; compound with trifluoro-acetic acid], the half-maximal inhibitory concentration (IC50) is under 100 nM. As for `O=C1c2c(-c3ccsc3)ccnc2CN1CCc1ccc2ccccc2n1` [Example 330, 6-(2-Quinolin-2-yl-ethyl)-4-thiophen-3-yl-6,7-dihydro-pyrrolo[3,4-b]pyridin-5-one], the concentration for half-maximal inhibition (IC50) was under 100 nM. To `CCn1cc(-c2cccc3c2CN(CCc2ccc4ccccc4n2)C3=O)cn1` [Example 347, 4-(1-Ethyl-1H-pyrazol-4-yl)-2-(2-quinolin-2-yl-ethyl)-2,3-dihydro-isoindol-1-one] belongs 100 to 200 nM; to `O=C1c2c(N3CC4COCC4C3)ccnc2CN1CCc1ccc2ccccc2n1` (stereo not shown) [Example 260, 6-(2-Quinolin-2-yl-ethyl)-4-(tetrahydro-furo[3,4-c]pyrrol-5-yl)-6,7-dihydro-pyrrolo[3,4-b]pyridin-5-one], under 100 nM; to `COc1ncc(-c2cccc3c2C(=O)N(CCc2ccc4ccccc4n2)C3)cn1` [Example 61, 7-(2-Methoxy-pyrimidin-5-yl)-2-(2-quinolin-2-yl-ethyl)-2,3-dihydro-isoindol-1-one], 100 to 200 nM. For `O=C1c2c(cccc2-c2ccc3cc[nH]c3c2)CN1CCc1ccc2ccccc2n1` [Example 64, 7-(1H-Indol-6-yl)-2-(2-quinolin-2-yl-ethyl)-2,3-dihydro-isoindol-1-one], the half-maximal inhibitory concentration (IC50) is under 100 nM. Compound `COc1cc(-c2cccc3c2C(=O)N(CCc2ccc4ccccc4n2)C3)ccn1` [Example 182, 7-(2-Methoxy-pyridin-4-yl)-2-(2-quinolin-2-yl-ethyl)-2,3-dihydro-isoindol-1-one trifluoroacetate] returned an IC50 of 200 to 500 nM.

Turning to `O=C1c2c(N3CCC(CF)C3)ccnc2CN1CCc1ccc2ccccc2n1` (stereo not shown) [compound 435, 4-[3-(Fluoromethyl)pyrrolidin-1-yl]-6-[2-(2-quinolyl)ethyl]-7H-pyrrolo[3,4-b]pyridin-5-one], the concentration for half-maximal inhibition (IC50) is under 100 nM. In turn, `O=C1c2c(cccc2-c2cccc(F)c2)CN1CCc1ccc2ccccc2n1` [Example 27, 7-(3-Fluoro-phenyl)-2-(2-quinolin-2-yl-ethyl)-2,3-dihydro-isoindol-1-one] yielded an IC50 of 100 to 200 nM. As for `Cc1ncc(-c2cccc3c2CN(CCc2ccc4ccccc4n2)C3=O)s1` [Example 342, 4-(2-Methyl-thiazol-5-yl)-2-(2-quinolin-2-yl-ethyl)-2,3-dihydro-isoindol-1-one], the IC50 was under 100 nM. To `O=C1c2c(cccc2-c2cccc(F)c2F)CN1CCc1ccc2ccccc2n1` [Example 50, 7-(2,3-Difluoro-phenyl)-2-(2-quinolin-2-yl-ethyl)-2,3-dihydro-isoindol-1-one] belongs 200 to 500 nM; to `O=C1c2c(cccc2-c2ccsc2)CN1CCc1ccc2ccccc2n1` [Example 25, 2-(2-Quinolin-2-yl-ethyl)-7-thiophen-3-yl-2,3-dihydro-isoindol-1-one], 100 to 200 nM; to `O=C1c2cccc(-c3ccncc3)c2CN1CCc1ccc2ccccc2n1` [Example 181, 4-Pyridin-4-yl-2-(2-quinolin-2-yl-ethyl)-2,3-dihydro-isoindol-1-one], under 100 nM. `O=C1c2c(-c3ccncc3F)ccnc2CN1CCc1ccc2ccccc2n1` [compound 412, 4-(3-Fluoro-pyridin-4-yl)-6-(2-quinolin-2-yl-ethyl)-6,7-dihydro-pyrrolo[3,4-b]pyridin-5-one]: the half-inhibitory concentration (IC50) was under 100 nM. Then `CN(C)c1cccc(-c2cccc3c2C(=O)N(CCc2ccc4ccccc4n2)C3)c1` [Example 43, 7-(3-Dimethylamino-phenyl)-2-(2-quinolin-2-yl-ethyl)-2,3-dihydro-isoindol-1-one], with 200 to 500 nM; and `O=C1c2cccc(-c3ccnc(C4CC4)c3)c2CN1CCc1ccc2ccccc2n1` [Example 354, 4-(2-Cyclopropyl-pyridin-4-yl)-2-(2-quinolin-2-yl-ethyl)-2,3-dihydro-isoindol-1-one], with 200 to 500 nM; and `Cc1cnc(-c2cccc3c2CN(CCc2ccc4ccccc4n2)C3=O)cn1` [Example 350, 4-(5-Methyl-pyrazin-2-yl)-2-(2-quinolin-2-yl-ethyl)-2,3-dihydro-isoindol-1-one], with under 100 nM. `CCn1c(CCN2Cc3cccc(-c4ccncc4)c3C2=O)nc2ccccc21` [Example 222, 2-[2-(1-Ethyl-1H-benzoimidazol-2-yl)-ethyl]-7-pyridin-4-yl-2,3-dihydro-isoindol-1-one trifluoroacetate] displayed an IC50 of under 100 nM. `COCCCOc1ccc(-c2ccncc2)c2c1CN(CCc1ccc3ccccc3n1)C2=O` [Example 204, 4-(3-Methoxy-propoxy)-7-pyridin-4-yl-2-(2-quinolin-2-yl-ethyl)-2,3-dihydro-isoindol-1-one] registered a half-inhibitory concentration (IC50) of under 100 nM.

Compound `O=C1c2c(N3CCC(C(F)F)C3)ccnc2CN1CCc1ccc2ccccc2n1` (stereo not shown) [compound 434] displayed a half-inhibitory concentration (IC50) of under 100 nM. As for `O=C1c2c(-c3ccncc3)ccc(OCCF)c2CN1CCc1ccc2ccccc2n1` [compound 533, 4-(2-Fluoro-ethoxy)-7-pyridin-4-yl-2-(2-quinolin-2-yl-ethyl)-2,3-dihydro-isoindol-1-one], the IC50 was under 100 nM. Then `CC(C)Oc1ccc(-c2ccncc2)c2c1CN(CCc1ccc3ccccc3n1)C2=O` [Example 205, 4-Isopropoxy-7-pyridin-4-yl-2-(2-quinolin-2-yl-ethyl)-2,3-dihydro-isoindol-1-one], with under 100 nM. To `O=C1c2cccc(OCc3ccncc3)c2C(=O)N1CCc1ccc2ccccc2n1` [Example 247, 4-(Pyridin-4-ylmethoxy)-2-(2-quinolin-2-yl-ethyl)-isoindole-1,3-dione] belongs under 100 nM; to `CCCn1c(CCN2Cc3cccc(-c4ccncc4)c3C2=O)nc2ccccc21` [Example 302, 2-[2-(1-Propyl-1H-benzoimidazol-2-yl)-ethyl]-7-pyridin-4-yl-2,3-dihydro-isoindol-1-one trifluoroacetate], under 100 nM. Then `Cc1ccc2ccc(CCN3Cc4nccc(N5CCOCC5)c4C3=O)nc2c1` [compound 392, 6-[2-(7-Methyl-2-quinolyl)ethyl]-4-morpholino-7H-pyrrolo[3,4-b]pyridin-5-one], with under 100 nM; and `Cn1ccc(-c2cccc3c2CN(CCc2ccc4ccccc4n2)C3=O)c1` [Example 352, 4-(1-Methyl-1H-pyrrol-3-yl)-2-(2-quinolin-2-yl-ethyl)-2,3-dihydro-isoindol-1-one], with 100 to 200 nM; and `CC1(C)c2cccc(-c3ccncc3)c2C(=O)N1CCc1ccc2ccccc2n1` [Example 6, 3,3-Dimethyl-7-pyridin-4-yl-2-(2-quinolin-2-yl-ethyl)-2,3-dihydro-isoindol-1-one], with 100 to 200 nM. With `O=C1c2c(cccc2-c2ccc(F)c(F)c2)CN1CCc1ccc2ccccc2n1` [Example 33, 7-(3,4-Difluoro-phenyl)-2-(2-quinolin-2-yl-ethyl)-2,3-dihydro-isoindol-1-one], the IC50 fell in the range of 200 to 500 nM. Compound `O=C1c2c(cccc2-c2ccc(F)cc2F)CN1CCc1ccc2ccccc2n1` [Example 45, 7-(2,4-Difluoro-phenyl)-2-(2-quinolin-2-yl-ethyl)-2,3-dihydro-isoindol-1-one] displayed an IC50 of 100 to 200 nM. On to `O=C1c2c(-c3cccnc3)ccc(F)c2CN1CCc1ccc2ccccc2n1` [compound 438, 4-fluoro-7-(3-pyridyl)-2-[2-(2-quinolyl)ethyl]isoindolin-1-one], for which the IC50 is under 100 nM.
